Here are results for 2 compounds from patent publication US8008000B2, “Viral variants detection and application” (priority 2003, dated 2011).

Molecules are shown by their SMILES. “Also recorded” adds a separate entry of the source. Counter-ions that a name gives are not always drawn.

In experiment [1] the test system is HBV. The experiment in a line: Response of Patient E (chronic HBV infection) to treatment. As to conditions: previously treated with lamivudine. It is filed as in vivo, Hepatitis B virus. An excerpt: Reference herein to “decreased” or “reduced” in relation to sensitivity to ADV and/or LMV and/or FTC and/or TFV includes and encompasses a complete or substantial resistance to the nucleoside or nucleotide analog or other anti-HBV agents as well as partial resistance and includes a replication rate or replication efficiency which is more than a wild-type in the presence of a nucleoside or nucleotide analog or other anti-HBV agents. In one aspects this is conveniently measured by an increase in viral load during treatment, or alternatively, there is no substantial decrease in HBV DNA viral load from pretreatment HBV DNA levels during treatment (i.e., non-response to treatment).

Experiment [2] has as its system HBV. Briefly: HBV viral load in Patient A during ADV therapy. The experiment is classed as in vivo, Hepatitis B virus. The conditions noted are these: Patient A on ADV treatment. An excerpt:
Patient A: During ADV treatment, unique HBV mutations were detected by sequencing (Table 4). This includes the unique mutation at rtT38K, and rtA181V. A number of other changes were also detected in the polymerase rtR55H and in the overlapping envelope gene (Table 4, FIGS. 4, 5 and 6). The changes in the HBsAg include sQ30K, sE44G, sA47T, sI126T, sA159V and sL173F. These unique changes were compared to reference sequences from each of the seven genotypes A-G as well as a consensus sequence from pretreatment samples to determine unique changes
Hepatitis B surface antigen (HBsAg), hepatitis B e antigen (HBeAg), anti-HBe and hepatitis B core antigen (HBcAg) specific IgG and IgM were measured using commercially available immunoassays (Abbott Laboratories, North Chicago, Ill., USA). Hepatitis B viral DNA levels were measured using a capture hybridization assay according to the manufacturer's directions (Digene Hybrid Capture II, Digene Diagnostics Inc., Beltsville, Md.). The manufacturers stated cut-off for detecting HBV viremia in clinical specimens was 0.7×10^6 copies/ml or 2.5 pg/ml, [Hendricks et al., Am J Clin Pathol 104: 537-46, 1995]. HBV DNA levels can also be quantitated using other commercial kits such as Cobas amplification HBV monitor kit (Roche).

Experiment [3] concerns HBV. The conditions noted are these: 30 mg daily dose, over 12 weeks, phase II studies; cited from earlier work.

On to `CC(C)(C)C(=O)OCOP(=O)(COCCn1cnc2c(N)ncnc21)OCOC(=O)C(C)(C)C` [ADV, adefovir dipivoxil], for which, in the experiment with HBV [1], the response to treatment entry was “did not respond; also recorded: nonresponder”. Also, the values for the HBV viral load in the experiment with HBV [2] (8 Jul. 2003), in the experiment with HBV [2] (14 Jan. 2003) and in the experiment on HBV [2] (22 Oct. 2002) were 7.92E+07, 1.21E+09 and 8.77E+06, respectively. Besides, in the experiment with HBV [3], the “mean decrease in viremia” value was 4 log10.
With `CC(C)OC(=O)OCOP(=O)(CO[C@H](C)Cn1cnc2c(N)ncnc21)OCOC(=O)OC(C)C` [TFV, tenofovir disoproxil fumarate], the response to treatment result with HBV [1] is “responded”.
